Key:
[1] = tested on: HCT 116 wild-type MTAP cells; test: Inhibition of proliferation of HCT116 wild-type MTAP cells (CellTiter-Glo, 6 days); type: cell-based; conditions: Homo sapiens, HCT-116, 144 h
Procedure: (§1) 1. HCT 116 MTAP-knockout cells and HCT 116 wild-type MTAP cells were plated in 96-well flat-bottom plates and cultured overnight at 37° C. and […] in McCoy's 5A medium containing 10% fetal bovine serum+1% penicillin-streptomycin.
(§2) 2. The next day, compounds were each dissolved in DMSO, diluted successively with DMSO and medium and then transferred to cell plates; the final concentration of each compound was 10 μM, 4-fold dilution was performed to obtain 9 concentration points, and a DMSO control was provided.
(§3) 3. Cells not treated with compound were subjected to CellTiter-Glo Luminescent Cell Viability Assay (Promega) to detect the cell viability, and reference was made to the kit instructions for the operation; the plates were then placed on an EnVision Multilabel Reader to detect luminescence signals.
(§4) 4. Meanwhile, the cell plates containing cells treated with compounds were cultured continuously at 37° C. and […] CO2 for 6 days.
(§5) 5. Then, the cell viability was also detected by CellTiter-Glo.
(§6) 6. Finally, dose response curves were plotted using the four parameter dose response curve module of GraphPad Prism v 9.2.0 software and proliferation inhibition IC50 (unit: nM) was calculated.

[2] = tested on: HCT 116 MTAP-knockout cells; test: Inhibition of proliferation of HCT116 MTAP-knockout cells (CellTiter-Glo, 6 days); type: cell-based, human; conditions: for IC50: Homo sapiens, HCT-116, 144 h, proliferation inhibition, HCT116 MTAP-knockout, 6 days, CellTiter-Glo; for Selectivity: IC50 HCT116 wild-type cells / IC50 HCT116 MTAP-knockout cells
Procedure: as §1, §2, §3, §4, §5, §6

| Compound | IC50 [1] [nM] | IC50 [2] [nM] | Selectivity [2] |
| --- | --- | --- | --- |
| Cc1ncc2c(N)nc3cc(F)c(C(=O)N(c4cnn(C)c4)[C@@H]4COc5cc(C(F)(F)F)ccc54)cc3n12 [Example 2, (S)-4-amino-7-fluoro-1-methyl-N-(1-methyl-1H-pyrazol-4-yl)-N-(6-(trifluoromethyl)-2,3-dihydrobenzofuran-3-yl)imidazo[1,5-a]quinoxaline-8-carboxamide] | 207 | 5 | 41.4 |
| C[C@@H]1COC[C@H](c2ccc(C(F)(F)F)cn2)N1C(=O)c1ccc2nc(N)c3cncn3c2c1 [Example 14a, (4-aminoimidazo[1,5-a]quinoxalin-8-yl)((3R,5S)-3-methyl-5-(5-(trifluoromethyl)pyridin-2-yl)morpholino)methanone] | 2060 | 55 | 37.4 |
| Nc1nc2ccc(C(=O)N(CC3CC3)C3CCc4cc(C(F)(F)F)ccc43)cc2n2cncc12 (stereo not drawn) [Example 22, 4-amino-N-(cyclopropylmethyl)-N-(5-(trifluoromethyl)-2,3-dihydro-1H-inden-1-yl)imidazo[1,5-a]quinoxaline-8-carboxamide] | 5480 | 154 | 35.6 |
| Cn1cc(N(C(=O)c2ccc3nc(N)c4cncn4c3c2)C2COc3cc(C(F)(F)F)ccc32)cn1 (stereo not drawn) [Example 30, 4-amino-N-(1-methyl-1H-pyrazol-4-yl)-N-(6-(trifluoromethyl)-2,3-dihydrobenzofuran-3-yl)imidazo[1,5-a]quinoxaline-8-carboxamide] | 725 | 12 | 60.4 |
| Nc1nc2ccc(C(=O)N(CC3CC3)[C@@H]3CCc4nc(C(F)(F)F)ccc43)cc2n2cncc12 [Example 34a, (R)-4-amino-N-(cyclopropylmethyl)-N-(2-(trifluoromethyl)-6,7-dihydro-5H-cyclopenta[b]pyridin-5-yl)imidazo[1,5-a]quinoxaline-8-carboxamide] | – | 225 | – |
| Nc1nc2ccc(C(=O)N(CC3CC3)[C@H]3CCc4nc(C(F)(F)F)ccc43)cc2n2cncc12 [Example 34b, (S)-4-amino-N-(cyclopropylmethyl)-N-(2-(trifluoromethyl)-6,7-dihydro-5H-cyclopenta[b]pyridin-5-yl)imidazo[1,5-a]quinoxaline-8-carboxamide] | – | 1820 | – |
| Nc1nc2ccc(C(=O)N(CC3CC3)[C@H]3COc4nc(C(F)(F)F)ccc43)cc2n2cncc12 [Example 181b, (R)-4-amino-N-(cyclopropylmethyl)-N-(6-(trifluoromethyl)-2,3-dihydrofuro[2,3-b]pyridin-3-yl)imidazo[1,5-a]quinoxaline-8-carboxamide] | – | 3130 | – |
| CN(C(=O)c1ccc2nc(N)c3cncn3c2c1)C1COc2nc(C(F)(F)F)ccc21 (stereo not drawn) [Example 204, 4-amino-N-methyl-N-(6-(trifluoromethyl)-2,3-dihydrofuro[2,3-b]pyridin-3-yl)imidazo[1,5-a]quinoxaline-8-carboxamide] | – | 238 | – |
| Cn1cc(N(C(=O)c2ccc3nc(N)c4cncn4c3c2)[C@@H]2COc3nc(C(F)(F)F)ccc32)cn1 [Example 205a, (S)-4-amino-N-(1-methyl-1H-pyrazol-4-yl)-N-(6-(trifluoromethyl)-2,3-dihydrofuro[2,3-b]pyridin-3-yl)imidazo[1,5-a]quinoxaline-8-carboxamide] | – | 313 | – |

Further lines, with some results ahead:

| IC50 [1] [nM] | IC50 [2] [nM] | Compound | Selectivity [2] |
| --- | --- | --- | --- |
| 42.7 | 16.3 | C[C@H](c1ncccn1)N(Cc1ccc(C(F)(F)F)cn1)C(=O)c1ccc2nc(N)c3c(cnn3C)c2c1 [Comparative compound 1, reference compound] | 2.6 |
| 78.3 | 35.5 | CC(c1ncccn1)N(Cc1ccc(C(F)(F)F)cn1)C(=O)c1ccc2nc(N)c3[nH]ncc3c2c1 (stereo not drawn) [Comparative compound 2, reference compound] | 2.2 |
| 96 | 6 | CC(C1CC1)N(Cc1ccc(C(F)(F)F)cn1)C(=O)c1ccc2nc(N)c3cnn(C)c3c2c1 (stereo not drawn) [Comparative compound 3, reference compound] | 16 |
| 85 | 6 | C[C@H](c1ncccn1)N(Cc1ccc(C(F)(F)F)cn1)C(=O)c1ccc2nc(N)c3cnn(C)c3c2c1 [Comparative compound 4, reference compound] | 14.2 |
| 1500 | 29 | Cc1ncc2c(N)nc3ccc(C(=O)N(Cc4ccc(C(F)(F)F)cn4)[C@H](C)c4ncccn4)cc3n12 [Example 1, (R)-4-amino-1-methyl-N-(1-(pyrimidin-2-yl)ethyl)-N-((5-(trifluoromethyl)pyridin-2-yl)methyl)imidazo[1,5-a]quinoxaline-8-carboxamide] | 51.7 |
| 166 | 8 | C[C@H](c1ncccn1)N(Cc1ccc(C(F)(F)F)cn1)C(=O)c1ccc2nc(N)c3cncn3c2c1 [Example 3, (R)-4-amino-N-(1-(pyrimidin-2-yl)ethyl)-N-((5-(trifluoromethyl)pyridin-2-yl)methyl)imidazo[1,5-a]quinoxaline-8-carboxamide] | 20.8 |
| 381 | 4 | Cn1cc(N(C(=O)c2ccc3nc(N)c4cncn4c3c2)[C@@H]2COc3cc(C(F)(F)F)ccc32)cn1 [Example 30a, (S)-4-amino-N-(1-methyl-1H-pyrazol-4-yl)-N-(6-(trifluoromethyl)-2,3-dihydrobenzofuran-3-yl)imidazo[1,5-a]quinoxaline-8-carboxamide] | 95.3 |
| 2060 | 22 | Nc1nc2ccc(C(=O)N(Cc3ccc(C(F)(F)F)cn3)CC3CC3)cc2n2cncc12 [Example 144, 4-amino-N-(cyclopropylmethyl)-N-((5-(trifluoromethyl)pyridin-2-yl)methyl)imidazo[1,5-a]quinoxaline-8-carboxamide] | 93.5 |
| 1080 | 24 | CC(C1CC1)N(Cc1ccc(C(F)(F)F)cn1)C(=O)c1ccc2nc(N)c3cncn3c2c1 (stereo not drawn) [Example 145, 4-amino-N-(1-cyclopropylethyl)-N-((5-(trifluoromethyl)pyridin-2-yl)methyl)imidazo[1,5-a]quinoxaline-8-carboxamide] | 44.8 |
| – | 68 | Nc1nc2ccc(C(=O)N(Cc3ccc(OC(F)(F)F)cn3)CC3CC3)cc2n2cncc12 [Example 158, 4-amino-N-(cyclopropylmethyl)-N-((5-(trifluoromethoxy)pyridin-2-yl)methyl)imidazo[1,5-a]quinoxaline-8-carboxamide] | – |
| – | 155 | CC(c1ccc(C(F)(F)F)cn1)N(CC1CC1)C(=O)c1ccc2nc(N)c3cncn3c2c1 (stereo not drawn) [Example 203, 4-amino-N-(cyclopropylmethyl)-N-(1-(5-(trifluoromethyl)pyridin-2-yl)ethyl)imidazo[1,5-a]quinoxaline-8-carboxamide] | – |
| – | 323 | COCCN(Cc1ccc(C(F)(F)F)cn1)C(=O)c1ccc2nc(N)c3cnc(C)n3c2c1 [Example 224, 4-amino-N-(2-methoxyethyl)-1-methyl-N-((5-(trifluoromethyl)pyridin-2-yl)methyl)imidazo[1,5-a]quinoxaline-8-carboxamide] | – |
| – | 2240 | CN(Cc1ccc(C(F)(F)F)cn1)C(=O)c1cc2c(cc1F)nc(N)c1cccn12 [Example 232, 4-amino-7-fluoro-N-methyl-N-((5-(trifluoromethyl)pyridin-2-yl)methyl)pyrrolo[1,2-a]quinoxaline-8-carboxamide] | – |
